According to patent US9133225B2, “Dual targeting anticancer agents” (priority 2013, dated 2015):

Legend:
HCT116 cells = assay: MTT cytotoxicity assay, HCT116; conditions: read-out: cytotoxicity IC50; HCT116, colon; MTT, 48 h treatment; spread in brackets
From the text: (§1) (a) Dulbecco's Modified Eagle Medium (DMEM), Dulbecco's phosphate buffered saline (DPBS), fetal bovine serum (FBS) and 0.25% trypsin/EDTA solutions were purchased from Cellgro (Manassas, Va.). Penicillin-streptomycin solutions were purchased from Mediatech (Manassas, Va.). (b) HeLa (CCL-2TM) cells, A549, A2870, A2870/CP70, MCF-7, PC-3, and MRC-5 cells were purchased from American Type Culture Collection (ATCC, Manassas, Va., USA). (c) HCT116 cells were kindly donated by Laura Trudel (MIT). HeLa, A549, MCF-7, and MRC-5 cells were cultured using DMEM supplemented with 10% FBS and 1% penicillin-streptomycin. A2870, A2870/CP70, and PC-3 cells were cultured in RPMI supplemented with 10% FBS and 1% penicillin-streptomycin. HCT116 cells were cultured in McCoy's supplemented with 10% FBS and 1% penicillin-streptomycin. All cell-culture experiments were performed in the aforementioned media in an incubator operating at 37° C. and in the presence of a humidified atmosphere containing 5.0% CO2. Cells were harvested using a 0.25% trypsin/EDTA solution.
The cytotoxicity of the compounds was assessed by means of the MTT assay (MTT=3-(4,5-dimethyl-2-thiazolyl)-2,5-diphenyl-2H-tetrazolium bromide). Typically, on day one, ˜1×10^3 cells were seeded into 96-well plates in 100 μL media per well. The last row of the plate was left empty as a control for background absorption. The cells were allowed to grow for 24 h in the incubator at 37° C. On day two, a series of drug dilutions in growth media were prepared immediately prior to cell treatment. The media in the wells of the 96 plates were replaced with 100 μL of growth media containing appropriate drug concentrations. The cells were treated for 48 h at 37° C. in the incubator. On day four, a stock solution of MTT (5 mg/mL in PBS buffer) was diluted with media so that, when 100 μL of the media was added to each well, 10 μL of MTT stock was applied. […] The optical density for each well at 550 nm was measured with a microplate reader.

A549 cells [1] = assay: MTT cytotoxicity assay, A549; conditions: read-out: cytotoxicity IC50; A549, lung; MTT, 48 h treatment; spread in brackets
From the text: as §1
The cytotoxicity of the compounds was assessed by means of the MTT assay (MTT=3-(4,5-dimethyl-2-thiazolyl)-2,5-diphenyl-2H-tetrazolium bromide). Typically, on day one, ˜1×10^3 cells were seeded into 96-well plates in 100 μL media per well. […] The optical density for each well at 550 nm was measured with a microplate reader.

A549 cells [2] = assay: Cell cycle flow cytometry (propidium iodide); assay type: cell-based; conditions: 3 μM
Method: Flow-cytometric measurements were also performed to determine the effect of Pt(IV)(α-TOS)(OEt) exposure on cell cycle progression. A549 cells were treated with Pt(IV)(α-TOS)(OEt), 3 μM, for 24, and 48 hours. The cell cycle distribution was compared with untreated cells. […] After 24 hours the untreated population had 78.1% in G1 phase, 17.7% in S phase, 4.5% in G2/M phase. After 48 hours the untreated population had 81.0% in G1 phase, 16.0% in S phase, 3.0% in G2/M phase. After 24 hours the treated population had 64.7% in G1 phase, 31.7% in S phase, 3.6% in G2/M phase. After 48 hours, the treated population had 70.4% in G1 phase, 26.2% in S phase, 3.4% in G2/M phase. […] It was therefore clear that Pt(IV)(α-TOS)(OEt) disturbed DNA synthesis and arrest at S-phase.
In order to monitor the cell cycle, flow cytometry studies were carried out. A549 cells were incubated with and without the test compounds for 24 and 48 h at 37° C. Cells were harvested from adherent cultures by trypsinization and combined with all detached cells from the incubation medium to assess total cell viability. Following centrifugation at 1000 rpm for 5 min, cells were washed with PBS and then fixed with 70% ethanol in PBS. Fixed cells were collected by centrifugation at 2500 rpm for 3 min, washed with PBS and centrifuged as before. Cellular pellets were re-suspended in 50 μg/mL propidium iodide (Sigma) in PBS for nucleic acids staining and treated with 100 μg/mL RNaseA (Sigma). DNA content was measured on a FACSCalibur-HTS flow cytometer (BD Biosciences) using laser excitation at 488 nm and 20,000 events per sample were acquired. Cell cycle profiles were analysed using the ModFit software. For the apoptosis experiments, the Annexin V-FITC Early Apoptosis Detection Kit (Cell Signaling Technology) was used. The manufacture's protocol was followed to carry out this experiment. Briefly, untreated and treated cells (1×10^5) were suspended in 1× annexin binding buffer (96 μL) (10 mM HEPES, 140 mM NaCl, 2.5 mM CaCl2, pH 7.4), then 1 μL FITC annexin V and 12.5 μL propidium iodine (10 μg/mL) were added to each sample and incubated on ice for 15 min. Subsequently, more binding buffer (150 μL) was added while gently mixing. The samples were kept on ice prior to being read on the FACSCalibur-HTS flow cytometer (BD Biosciences) (20,000 events per sample were acquired). Cell populations were analysed using the FlowJo software (Tree Star). For the JC-1 assay, the JC-1 Mitochondrial Membrane Potential Assay Kit (Cayman) was used. The manufacture's protocol was followed to carry out this experiment. Briefly, to untreated and treated cells grown in 6-well plates (at a density of 5×10^5 cells/mL) was added the JC-1 staining solution (100 μL/mL of cell media). The cells were incubated for 30 min, harvested, and analysed by using the FACSCalibur-HTS flow cytometer (BD Biosciences) (20,000 events per sample were acquired). The FL1 channel was used to detect unhealthy or apoptotic cells with collapsed mitochondria. Cell populations were analysed using the FlowJo software (Tree Star).

CC[O][Pt]([NH2])([NH2])([Cl])([Cl])[O]C(=O)CCC(=O)Oc1c(C)c(C)c2c(c1C)CCC(C)(CCCC(C)CCCC(C)CCCC(C)C)O2 (stereo not drawn) [Pt(IV)(α-TOS)(OEt)]
IC50 (HCT116 cells): 1240 nM
IC50 (A549 cells [1]): 1300 nM
cell population in G1 phase (A549 cells [2]; 24 hours): 64.7%
cell population in G2/M phase (A549 cells [2]; 24 hours): 3.6%
cell population in S phase (A549 cells [2]; 24 hours): 31.7%
cell population in G1 phase (A549 cells [2]; 48 hours): 70.4%
cell population in G2/M phase (A549 cells [2]; 48 hours): 3.4%
cell population in S phase (A549 cells [2]; 48 hours): 26.2%
